Bridges are numbered along the chain shown (N, C = ends). Where no end group is shown, it is not given here. [ ]: non-standard residue; d: D form. pGlu = O=C1CC[C@@H](C(=O)O)N1
Columns and labels:
Assay in all cases: Minimum inhibitory concentration, 96 well microtitre plate
Assay type in all cases: cell-based
Candida albicans (14053) = conditions: Candida albicans (ATCC 14053); 1/4 strength TSB, 1×10^5 /ml
Method: (§1) Antimicrobial activity was determined during the purification process. Approximately 2.5 ml fractions from the P-30 gel filtration column were assessed after drawing fractions and taking an aliquot of the fraction and spotting that fraction on a radial diffusion plate as described by Zasloff, M. (Proc. Natl. Acad. Sci USA 84: 5449-5453, 1987) against E. coli D31 or fungal pathogens such as Candida albicans, Candida tropicalis, or Staphylococcus aureus. (See also, Zasloff et al., Proc. Natl. Acad. Sci. USA 85: 910-913, 1988.) (FIGS. 1B and 1C.) Briefly, the minimal inhibitory concentrations (MIC's) were assessed using a 96 well microtitre plate (Corning Glass Works, Corning, N.Y.). Microorganisms were grown in log phase at 1/4 strength tryptics soy broth (TSB) at a density of 1×10^5 /ml. The assays used 1/4 strength TSB. For each organism, dilutions of peptide were made ranging from >500 μg/ml to 1 μg/ml using 1/4 strength TSB as a dilution buffer. Zones of bacterial growth or lack of growth were assessed under the microscope. MIC's were calculated based the lowest concentration of peptide that inhibited growth.

[1] = test system: Candida tropicalis (13803); conditions: Candida tropicalis (ATCC 13803); 1/4 strength TSB, 1×10^5 /ml
Method: as §1

Escherichia coli (D31) = conditions: 1/4 strength TSB, 1×10^5 /ml
Method: as §1

[2] = test system: Pseudomonas aeruginosa (27853); conditions: Pseudomonas aeruginosa (ATCC 27853); 1/4 strength TSB, 1×10^5 /ml
Method: as §1

[3] = test system: Staphylococcus aureus (29213); conditions: Staphylococcus aureus (ATCC 29213); 1/4 strength TSB, 1×10^5 /ml
Method: as §1

| Substance | Minimum Inhibitory Concentration (Candida albicans (14053)) | Minimum Inhibitory Concentration [1] | Minimum Inhibitory Concentration (Escherichia coli (D31)) | Minimum Inhibitory Concentration [2] | Minimum Inhibitory Concentration [3] |
| --- | --- | --- | --- | --- | --- |
| Magainin II-amide | 50 to 100 µg/mL | 13 to 25 µg/mL | 13 to 25 µg/mL | 13 to 25 µg/mL | 50 to 100 µg/mL |
| [pGlu]GVRNSQSCRRNKGICVPIRCPGSMRQIGTCLGAQVKCCRRK (disulfide 9-38, 16-31, 21-39) [LAP, lingual antimicrobial peptide] | 32 to 63 µg/mL | 16 to 32 µg/mL | 16 to 32 µg/mL | 63 to 125 µg/mL | 63 to 125 µg/mL |

— US5550109A, “Inducible defensin peptide from mammalian epithelia” (priority 1994, dated 1996)
